Literature values in patent publication US20110160154A1, “SUBSTITUTED PIPERAZINES” (Auspex Pharmaceuticals, Inc., priority 2007, published 2011).

Assays:
[1] = system: late sodium current (INa); details: literature value (Antzelevitch et al. 2004); read-out: IC50 for inhibition of late sodium current (INa)
[2] = background statement; ranolazine must be taken frequently

IC50 [1]: 5 to 21 µM
half-life [2]: less than two
SMILES: COc1ccccc1OCC(O)CN1CCN(CC(=O)Nc2c(C)cccc2C)CC1 (centres unmarked) [ranolazine, N-(2,6-dimethyl-phenyl)-2-{4-[2-hydroxy-3-(2-methoxy-phenoxy)-propyl]-piperazin-1-yl}-acetamide]
